From US8383637B2, “2-amino-quinazoline derivatives useful as inhibitors of β-secretase (BACE)” (Jansssen Pharmaceutica N.V., priority 2004, dated 2013)

Molecular target: T1, β-secretase(BACE) (Homo sapiens, UniProt P56817)
T1 construct: purchased Panvera
Experiment: BACE FS1% Inhibition Assay
Format: biochemical
Details: FS1 substrate; for inhibition at 0.3 µM / inhibition at 1 µM / inhibition at 3 µM: read-out: % Inhibition (FS); for % Inhibition (FS) 10 μM: 10 μM test compound
Experimental: BACE FS1% Inhibition Assay The following reagents were used in this assay: sodium acetate, PEG8000 (Sigma), DMSO, HEPES, FS1 substrate [[…]] […] The FS1-substrate stock solution was prepared in DMSO as a 10 mg/mL solution. The FS1-substrate working solution was prepared by diluting the 10 mg/mL stock solution with substrate assay buffer to a final concentration of 300 μg/mL. The β-secretase (BACE) working solution was prepared by diluting a 0.83 mg/mL BACE stock solution with enzyme assay buffer to a final concentration of 4 μg/mL. Test compounds were dissolved in DMSO to 10 mM. […] The screening procedure for this assay was as follows: 15 μL of BACE working solution was pipetted into each well of a 96-well plate. To each well was then pipetted 2 μL of test compound at the selected concentration. Test compound and BACE were then mixed with a pipettor and incubated for 20 min at room temperature. To each well was then added 10 μL of the FS1 substrate working solution. The plates were then incubated for 1 hour at room temperature. […] The procedure for the blank was as follows. 15 μL of assay buffer was pipetted into each well to be used as a blank control. To each well was then added 2 μL of vehicle and 10 μL of FS1-substrate working solution. The plates were then incubated for 1 hour at room temperature. […] The procedure for the positive control was as follows: 15 μL of BACE working solution was pipetted into each well to be used as a positive control. To each well was then pipetted 2 μL of vehicle. Vehicle and BACE were then mixed with a pipettor and incubated for 20 min at room temperature. To each well was then added 10 μL of the FS1 substrate working solution. The plates were then incubated for 1 hour at room temperature. […] For test compounds, % inhibition was determined at each concentration as follows: [formula]

T1 sequence (P56817 46-501): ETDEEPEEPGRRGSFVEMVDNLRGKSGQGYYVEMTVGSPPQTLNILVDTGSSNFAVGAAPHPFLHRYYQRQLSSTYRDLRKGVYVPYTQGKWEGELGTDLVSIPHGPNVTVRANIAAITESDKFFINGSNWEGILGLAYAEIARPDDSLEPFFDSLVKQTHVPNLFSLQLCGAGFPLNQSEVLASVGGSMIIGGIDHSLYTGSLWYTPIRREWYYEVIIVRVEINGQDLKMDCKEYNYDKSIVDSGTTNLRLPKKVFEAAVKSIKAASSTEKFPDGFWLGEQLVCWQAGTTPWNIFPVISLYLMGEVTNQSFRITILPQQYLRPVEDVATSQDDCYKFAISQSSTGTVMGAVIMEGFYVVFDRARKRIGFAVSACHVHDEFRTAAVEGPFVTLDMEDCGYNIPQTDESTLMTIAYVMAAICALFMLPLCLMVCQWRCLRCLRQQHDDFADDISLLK

Compound	% Inhibition (FS) 0.3 μM (0.3 μM test compound)	% Inhibition (FS) 1 μM (1 μM test compound)	% Inhibition (FS) 3 μM (3 μM test compound)	also measured
CC(C)(C)OC(=O)Nc1cccc(CN2Cc3cc(Oc4ccccc4)ccc3N=C2N)c1 [Compound 224]	<30%	<30%	<30%	
CN(C(=O)CCC(C1CCOCC1)N1Cc2cc(Oc3ccccc3)ccc2N=C1N)C1CCC(C(=O)O)CC1 (stereo not shown) [Compound 743]				% Inhibition (FS) (0.3 μM test compound): 107%; % Inhibition (FS) (1 μM test compound): 125%; % Inhibition (FS) (3 μM test compound): 130%
CC(C)(C)C(=O)Nc1cccc(CN2Cc3cc(Oc4ccccc4)ccc3N=C2N)c1 [Compound 290]	<30%	<30%	<30%	
CN(C(=O)c1cccc(CN2Cc3cc(Oc4ccccc4-c4ccccc4)ccc3N=C2N)c1)C1CCCCC1 [Compound 234]	<30%	57%	43%	
CN(C(=O)c1cccc(CN2Cc3cc(Oc4ccccc4C4CCCC4)ccc3N=C2N)c1)C1CCCCC1 [Compound 512]	<30%	<30%	51%	
CC(C)C(CC(=O)N(C(C)C)C1CCCCC1)N1Cc2cc(Oc3ccccc3)ccc2N=C1N (stereo not shown) [Compound 202]	<30%	<30%	<30%	
CN(C(=O)c1cccc(CN2Cc3cc(-c4ccc(C5CCCCC5)cc4)ccc3N=C2N)c1)C1CCCCC1 [Compound 267]	<30%	39%	38%	
CN(C(=O)c1cccc(CN2Cc3cc(Nc4ccc(C5CCCCC5)cc4)ccc3N=C2N)c1)C1CCCCC1 [Compound 437]	<30%	<30%	38%	
NC1=Nc2ccc(-c3ccc4ccccc4c3)cc2CN1CCNC(=O)CCC(F)(F)F [Compound 686]				% Inhibition (FS) (0.3 μM test compound): <30%; % Inhibition (FS) (1 μM test compound): 73%; % Inhibition (FS) (3 μM test compound): 80%
CN(C(=O)c1cccc(CN2Cc3ccccc3N=C2N)c1)C1CCCCC1 [Compound 801]				inhibition at 0.3 µM (0.3 μM test compound): < 30%; inhibition at 1 µM (1 μM test compound): < 30%; inhibition at 3 µM (3 μM test compound): < 30%
CC(C)(C)C(=O)NCCN1Cc2cc(-c3cnc4ccccc4c3)ccc2N=C1N [Compound 674]				% Inhibition (FS) (0.3 μM test compound): 36%; % Inhibition (FS) (1 μM test compound): <30%; % Inhibition (FS) (3 μM test compound): 41%
NC1=Nc2ccc(-c3ccc(F)cc3)cc2CN1CCNC(=O)C1CCCCC1 [Compound 623]	<30%			% Inhibition (FS) 1 μM (1 μM test compound, 1 µM): <30%; % Inhibition (FS) 3 μM (3 μM test compound, 3 µM): 82%
CN1CCCC1CCNC(=O)c1cccc(CN2Cc3cc(Oc4ccccc4)ccc3N=C2N)c1 (stereo not shown) [Compound 222]	<30%	<30%	<30%	
CSc1ccc(Nc2ccc3c(c2)CN(Cc2cccc(C(=O)N(C)C4CCCCC4)c2)C(N)=N3)cc1 [Compound 442]	<30%	58%	101%	
CCCC(CCC)C(=O)N1CCCC(N2Cc3cc(Oc4ccccc4)ccc3N=C2N)C1 (stereo not shown) [Compound 612]	<30%	34%	<30%	
CC(=O)c1cccc(-c2ccc3c(c2)CN(CCNC(=O)c2cc(C)oc2C)C(N)=N3)c1 [Compound 588]	<30%	<30%	<30%	
CCCC(=O)NCCN1Cc2cc(-c3ccccc3Cl)ccc2N=C1N [Compound 652]	31%	63%	91%	
NC1=Nc2ccc(Oc3ccccc3)cc2CN1CCC(=O)N(C1CCCCC1)C1CCCCC1 [Compound 180]	<30%	<30%	77%	

Compound	% Inhibition (FS) 0.3 μM (0.3 μM test compound)	% Inhibition (FS) 1 μM (1 μM test compound)	% Inhibition (FS) 3 μM (3 μM test compound)	also measured
COc1cccc(COc2ccc3c(c2)CN(Cc2cccc(C(=O)N(C)C4CCCCC4)c2)C(N)=N3)c1 [Compound 514]	<30%	<30%	<30%	
NC1=Nc2ccc(Oc3ccccc3)cc2CN1Cc1cccc(NC(=O)C2CCCCC2)c1 [Compound 286]	<30%	<30%	36%	
NC1=Nc2ccc(Oc3ccccc3)cc2CN1Cc1cccc(C(=O)O)c1 [Compound 805]				inhibition at 0.3 µM (0.3 μM test compound): < 30%; inhibition at 1 µM (1 μM test compound): < 30%; inhibition at 3 µM (3 μM test compound): < 30%
COC(=O)C1CCCC(N(C)C(=O)CCC(C2CCCCC2)N2Cc3cc(Oc4ccccc4)ccc3N=C2N)C1 (mixture of isomers) [Compound 777]				% Inhibition (FS) (0.3 μM test compound): 38%; % Inhibition (FS) (1 μM test compound): 97%; % Inhibition (FS) (3 μM test compound): 123%
COc1ccc(C)cc1-c1ccc2c(c1)CN(CCNC(=O)C1CCCCC1)C(N)=N2 [Compound 630]	<30%	<30%	48%	
CCCC(CCC)C(=O)N1CCCCC(N2Cc3cc(Oc4ccccc4)ccc3N=C2N)C1 (stereo not shown) [Compound 552]	<30%	<30%	36%	
COc1ccc2c(c1)C(CC(=O)N(C)C1CCCCC1)CC2N1Cc2cc(Oc3ccccc3)ccc2N=C1N (stereo not shown) [Compound 146]			<30%	% Inhibition (FS) 10 μM: 39%
NC1=Nc2ccc(Oc3ccccc3)cc2CN1CCCNC(=O)C1CCC1 [Compound 144]			39%	% Inhibition (FS) 10 μM: 59%
CCCC(CNC(=O)C12CC3CC(CC(C3)C1)C2)N1Cc2cc(Oc3ccccc3)ccc2N=C1N (stereo not shown) [Compound 555]				% Inhibition (FS) 0.3 μM (0.3 μM test compound, 0.3 µM): <30%; % Inhibition (FS) 1 μM (1 μM test compound, 1 µM): <30%; % Inhibition (FS) 3 μM (3 μM test compound, 3 µM): 46%
CN(C(=O)c1cccc(CN2Cc3cc(Nc4ccc5ccccc5c4)ccc3N=C2N)c1)C1CCCCC1 [Compound 436]	<30%	37%	50%	
COc1ccccc1Sc1ccc2c(c1)CN(Cc1cccc(C(=O)N(C)C3CCCCC3)c1)C(N)=N2 [Compound 412]	<30%	<30%	49%	
CN(C(=O)CCC(C1CCCCC1)N1Cc2cc(Oc3ccccc3)ccc2N=C1N)C1CCC(O)CC1 (stereo not shown) [Compound 639]	<30%	<30%	48%	
CCOC(=O)C1CCC(N(C)C(=O)CCC(C2CCCCC2)N2Cc3cc(Oc4ccccc4)ccc3N=C2N)CC1 (stereo not shown) [Compound 763]				% Inhibition (FS) (0.3 μM test compound, 0.3 µM): <30%; % Inhibition (FS) (1 μM test compound, 1 µM): 84%; % Inhibition (FS) (3 μM test compound, 3 µM): 109%
CN(C(=O)c1ccc(CN2Cc3cc(Oc4ccccc4)ccc3N=C2N)s1)C1CCCCC1 [Compound 503]	<30%	<30%	90%	
NC1=Nc2ccc(-c3ccccc3F)cc2CN1CCNC(=O)C1CCC1 [Compound 642]	37%	63%	96%	
CCc1ccccc1-c1ccc2c(c1)CN(Cc1cccc(C(=O)N(C)C3CCCCC3)c1)C(N)=N2 [Compound 320]	−31%	<30%	<30%	
CN(C(=O)c1cccc(CN2Cc3cc(OCc4ccccc4-c4ccccc4)ccc3N=C2N)c1)C1CCCCC1 [Compound 513]	<30%	<30%	<30%	
